According to ChEMBL document CHEMBL1150521, “2-NAP: a selective, hydrophilic, non-peptide CCKA - receptor antagonist derived from the cholecystokinin C-terminal dipeptide” (Bioorg Med Chem Lett, 1993):
Blank lines part the entries; values can stand above or below the molecule they belong to. Calls of active or inactive are those of the source. The calls are words filed in the database; no cut-off is given here. Residues, ends and D or L forms follow the SMILES beside them. *: point of attachment. Boc = CC(C)(C)OC(=O)*

Tests used:
[1] = target: T1, Cholecystokinin receptor type A (Cavia porcellus) (UniProt Q63931); experiment: Binding affinity for Cholecystokinin type A receptor in Guinea-Pig gall bladder; assay type: tissue-based
T1 sequence (whole entry): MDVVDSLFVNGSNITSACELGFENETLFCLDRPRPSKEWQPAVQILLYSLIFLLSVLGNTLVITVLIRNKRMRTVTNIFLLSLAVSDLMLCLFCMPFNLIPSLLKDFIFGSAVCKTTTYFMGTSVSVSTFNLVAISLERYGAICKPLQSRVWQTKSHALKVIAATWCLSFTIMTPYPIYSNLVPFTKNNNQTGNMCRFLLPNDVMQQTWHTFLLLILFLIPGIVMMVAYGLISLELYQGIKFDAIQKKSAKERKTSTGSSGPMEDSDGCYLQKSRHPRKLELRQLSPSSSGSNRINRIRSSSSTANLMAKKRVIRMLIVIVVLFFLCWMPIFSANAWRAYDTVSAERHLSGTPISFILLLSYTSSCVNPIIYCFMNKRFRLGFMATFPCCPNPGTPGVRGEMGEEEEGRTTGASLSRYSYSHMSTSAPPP

[2] = target: T1, Cholecystokinin receptor type A (Cavia porcellus); experiment: Affinity at Cholecystokinin type A receptor in guinea pig gall bladder; inactive at the limits of solubility, usually 10e-4 M.; assay type: tissue-based
[3] = target: T2, Gastrin/cholecystokinin type B receptor (Mus musculus) (UniProt P56481); experiment: Maximum acid secretion obtained at 10e -5 M: values expressed as percentage of the maximum response to pentagastrin (n=4/6) in mouse stomach at CCKB/Gastrin receptor; assay type: functional, tissue-based
T2 sequence (whole entry): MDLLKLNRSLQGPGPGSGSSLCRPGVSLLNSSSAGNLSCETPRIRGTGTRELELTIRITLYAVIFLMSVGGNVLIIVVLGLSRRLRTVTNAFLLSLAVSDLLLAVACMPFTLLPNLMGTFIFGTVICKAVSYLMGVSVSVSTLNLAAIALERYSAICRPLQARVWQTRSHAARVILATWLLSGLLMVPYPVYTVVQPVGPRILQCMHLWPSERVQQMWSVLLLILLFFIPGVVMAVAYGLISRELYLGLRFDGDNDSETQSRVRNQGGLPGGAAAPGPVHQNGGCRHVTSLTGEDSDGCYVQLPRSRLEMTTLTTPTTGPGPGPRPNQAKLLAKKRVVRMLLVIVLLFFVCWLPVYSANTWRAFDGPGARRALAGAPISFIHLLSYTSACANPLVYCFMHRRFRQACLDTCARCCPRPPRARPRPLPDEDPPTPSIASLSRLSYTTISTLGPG

[4] = target: T2, Gastrin/cholecystokinin type B receptor (Mus musculus); experiment: Efficiency against CCKB/Gastrin receptor for stimulation of gastric acid secretion in lumen-perfused mouse stomach: activity measured as midpoint agonist concentration-effect curve parameter; assay type: functional, tissue-based
[5] = target: T1, Cholecystokinin receptor type A (Cavia porcellus); experiment: Compound was evaluated for its affinity at Cholecystokinin type A receptor in Guinea-Pig gall bladder; inactive at 10e-4 M; assay type: tissue-based
[6] = target: T2, Gastrin/cholecystokinin type B receptor (Mus musculus); experiment: Maximum acid secretion obtained at 10e -5 M: values expressed as percentage of the maximum response to pentagastrin (n=4/6) in mouse stomach at CCKB/Gastrin receptor; inactive at the limits of solubility, usually 10e-4 M.; assay type: functional, tissue-based
[7] = target: T2, Gastrin/cholecystokinin type B receptor (Mus musculus); experiment: Efficiency against CCKB/Gastrin receptor for stimulation of gastric acid secretion in lumen-perfused mouse stomach: activity measured as midpoint agonist concentration-effect curve parameter; inactive at the limits of solubility, u sually 10e-4M.; assay type: functional, tissue-based
[8] = Compound was evaluated for partition coefficient using chloroform/buffer at pH 7.4 and 280 nm; assay type: physicochemical; conditions: octanol/water
[9] = Compound was evaluated for partition coefficient using chloroform/buffer at pH 7.4 and 254 nm; assay type: physicochemical; conditions: octanol/water
[10] = target: T3, Cholecystokinin receptor type A (Cavia porcellus, UniProt Q63931); experiment: In vitro affinity against Cholecystokinin type A receptor in guinea pig pancreatic cell
T3 sequence (Q63931 whole entry): T1 sequence (whole entry)

[11] = target: T4, Gastrin/cholecystokinin type B receptor (Mus musculus, UniProt P56481); experiment: Compound was evaluated for its affinity against Cholecystokinin type B receptor in mouse cerebral cortex; assay type: tissue-based
T4 sequence (P56481 whole entry): T2 sequence (whole entry)

[12] = target: T1, Cholecystokinin receptor type A (Cavia porcellus); experiment: Compound was evaluated for its affinity at Cholecystokinin type A receptor in Guinea-Pig gall bladder; assay type: tissue-based
[13] = target: T1, Cholecystokinin receptor type A (Cavia porcellus); experiment: Compound was evaluated for its affinity at Cholecystokinin type A receptor in Guinea-Pig gallbladder; inactive at the limits of solubility, usually 10e-4 M.
[14] = target: T1, Cholecystokinin receptor type A (Cavia porcellus); experiment: Compound was evaluated for its affinity at Cholecystokinin type A receptor in Guinea-Pig gallbladder

pKB [1]: 6
Structure (SMILES): COc1ccc(CCNC(=O)[C@H](CC(=O)O)NS(=O)(=O)c2ccc3ccccc3c2)cc1

pKB [2]: inactive
Structure (SMILES): O=C(O)CC[C@@H](NS(=O)(=O)c1ccc2ccccc2c1)C(=O)NCCc1ccccc1

pKB [2]: inactive | Max response [3]: 96% | p[A50] [4]: 5.6
Structure (SMILES): NC(=O)[C@H](Cc1ccccc1)NC(=O)[C@H](CC(=O)O)NS(=O)(=O)c1ccc2ccccc2c1

pKB [2]: inactive | Max response [6]: inactive | p[A50] [7]: inactive
Structure (SMILES): O=C(O)C[C@H](NS(=O)(=O)c1cccc2ccccc12)C(=O)NCCc1ccccc1

pKB [2]: 6.5 | Max response [6]: inactive | logD [8]: -0.91 | logD [9]: -0.91 | Ki [10]: 0.355 µM | p[A50] [7]: inactive | Ki [11]: 69.2 µM
Structure (SMILES): O=C(O)C[C@H](NS(=O)(=O)c1ccc2ccccc2c1)C(=O)NCCc1ccccc1

pKB [1]: 6.1
Structure (SMILES): O=C(O)CC[C@H](NS(=O)(=O)c1ccc2ccccc2c1)C(=O)NCCc1ccccc1

pKB [1]: 7
Structure (SMILES): O=C(O)C[C@H](NS(=O)(=O)c1ccc2ccccc2c1)C(=O)NCCCc1ccccc1

pKB [1]: 6.6
Structure (SMILES): COc1ccc2cc(S(=O)(=O)N[C@@H](CC(=O)O)C(=O)NCCc3ccccc3)ccc2c1

pKB [1]: 6.6
Structure (SMILES): O=C(O)C[C@H](NS(=O)(=O)c1ccc2ccccc2c1)C(=O)NCCc1ccc(F)cc1

pKB [1]: 5
Structure (SMILES): NS(=O)(=O)c1ccc(CCNC(=O)[C@H](CC(=O)O)NS(=O)(=O)c2ccc3ccccc3c2)cc1

Max response [6]: inactive | p[A50] [7]: inactive | pKB [14]: 5.6
Structure (SMILES): O=C(O)C[C@H](NC(=O)c1ccc2ccccc2c1)C(=O)NCCc1ccccc1

pKB [1]: 5.9
Structure (SMILES): O=C(O)C[C@@H](NS(=O)(=O)c1ccc2ccccc2c1)C(=O)NCCc1ccccc1

pKB [2]: inactive
Structure (SMILES): O=C(O)C[C@H](NS(=O)(=O)c1ccccc1)C(=O)NCCc1ccccc1

pKB [1]: 5.4
Structure (SMILES): O=C(O)C[C@H](NS(=O)(=O)Cc1ccc2ccccc2c1)C(=O)NCCc1ccccc1

Second part, the molecule before the results:

Structure (SMILES): COc1ccc2cc(S(=O)(=O)N[C@@H](CC(=O)O)C(=O)NCCc3ccccc3)ccc2c1Cl
pKB [1]: 6.5

Structure (SMILES): NC(=O)[C@H](Cc1ccccc1)NC(=O)[C@H](CC(=O)O)NS(=O)(=O)c1cccc2ccccc12
pKB [2]: inactive | Max response [3]: 30% | p[A50] [4]: 4.6

Structure (SMILES): COc1ccc(S(=O)(=O)N[C@@H](CC(=O)O)C(=O)NCCc2ccccc2)cc1
pKB [2]: inactive

Structure (SMILES): NC(=O)[C@H](Cc1ccccc1)NC(=O)[C@H](CC(=O)O)NC(=O)c1ccc2ccccc2c1
pKB [2]: inactive | Max response [3]: 100% | p[A50] [4]: 5

Structure (SMILES): COc1cc2cc(S(=O)(=O)N[C@@H](CC(=O)O)C(=O)NCCc3ccccc3)ccc2c(Cl)c1OC
pKB [1]: 6.2

Structure (SMILES): O=C(O)C[C@H](NS(=O)(=O)CCc1ccccc1)C(=O)NCCc1ccccc1
pKB [1]: 5.5

Structure (SMILES): O=C(O)C[C@H](NS(=O)(=O)CCCc1ccccc1)C(=O)NCCc1ccccc1
pKB [2]: inactive

Structure (SMILES): CC(C)(C)OC(=O)N[C@@H](CC(=O)O)C(=O)N[C@@H](Cc1ccccc1)C(N)=O (Boc-Asp-Phe-NH2)
Max response [3]: 100% | p[A50] [4]: 5.7 | pKB [5]: inactive

Structure (SMILES): Cc1ccc(S(=O)(=O)N[C@@H](CC(=O)O)C(=O)NCCc2ccccc2)cc1
pKB [2]: inactive

Structure (SMILES): O=C(O)C[C@H](NS(=O)(=O)Cc1ccccc1)C(=O)NCCc1ccccc1
pKB [2]: inactive

Structure (SMILES): O=C(O)C[C@H](NS(=O)(=O)c1ccc(Cl)c(Cl)c1)C(=O)NCCc1ccccc1
pKB [1]: 5.8

Structure (SMILES): CN1C(=O)[C@@H](NC(=O)c2cc3ccccc3[nH]2)N=C(c2ccccc2)c2ccccc21 [DEVAZEPIDE]
logD [8]: 4.1 | logD [9]: 4.16

Structure (SMILES): CC(C)C[C@H](NC(=O)[C@H](Cc1c[nH]c2ccccc12)NC(=O)OC(C)(C)C)C(=O)N[C@@H](CC(=O)O)C(=O)N[C@@H](Cc1ccccc1)C(N)=O (Boc-WLDF-NH2)
Max response [3]: 100% | p[A50] [4]: 8.6 | pKB [12]: 5.1

Structure (SMILES): CC(C)(C)OC(=O)N[C@@H](CC(=O)O)C(=O)NCCc1ccccc1
Max response [6]: inactive | pKB [13]: inactive | p[A50] [7]: inactive

Structure (SMILES): O=C(O)C[C@H](NS(=O)(=O)/C=C/c1ccccc1)C(=O)NCCc1ccccc1
pKB [1]: 6.3
